Test results: patent US20250034170A1, “SMALL MOLECULE MODULATORS OF GLUCOCEREBROSIDASE ACTIVITY AND USES THEREOF” (Vanqua Bio, Inc., priority 2021, published 2025)

Molecular target: T1, GCase (Homo sapiens, UniProt P04062)
T1 construct: endogenous in cells; host or cells: HeLa cells
T1 sequence (P04062 40-536): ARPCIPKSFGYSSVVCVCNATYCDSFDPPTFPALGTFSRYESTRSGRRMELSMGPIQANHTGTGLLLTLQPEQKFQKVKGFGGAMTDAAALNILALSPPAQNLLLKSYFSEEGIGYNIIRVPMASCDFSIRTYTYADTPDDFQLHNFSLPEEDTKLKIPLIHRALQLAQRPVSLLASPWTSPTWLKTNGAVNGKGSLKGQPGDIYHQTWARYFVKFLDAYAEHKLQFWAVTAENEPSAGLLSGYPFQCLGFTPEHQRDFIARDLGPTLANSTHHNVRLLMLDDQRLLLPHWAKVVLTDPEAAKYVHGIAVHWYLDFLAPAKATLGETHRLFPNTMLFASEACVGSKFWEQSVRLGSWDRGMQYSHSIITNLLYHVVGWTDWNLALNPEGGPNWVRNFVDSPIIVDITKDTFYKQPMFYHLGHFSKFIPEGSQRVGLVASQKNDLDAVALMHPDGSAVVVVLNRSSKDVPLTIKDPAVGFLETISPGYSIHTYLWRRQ
Test: activation of GCase in a live cell PFB assay in HELA cells
Type: cell-based
Method: Exemplary compounds were evaluated for activation of GCase in a live cell PFB assay in HELA cells (essentially as described in Ysselstein et al., “LRRK2 kinase activity regulates lysosomal glucocerebrosidase in neurons derived from Parkinson's disease patients” Nature Communications (2019) 10:5570). […] EC50 ranges: A: <10 μM; B: >10-50 μM; C: >50-100 μM; D: >100 μM.

[1] = activation of GCase, EC50 ranges

SMILES	EC50 [1]	EC50 (EC50 given as range classes)
O=C1CC2(CCN(c3ccc(C(F)(F)F)cn3)CC2)CN1c1cnc2cnn(CC(F)F)c2n1 [Compound 112, 2-[1-(2,2-difluoroethyl)-1H-pyrazolo[3,4-b]pyrazin-6-yl]-8-[5-(trifluoromethyl)pyridin-2-yl]-2,8-diazaspiro[4.5]decan-3-one]	10 to 50 µM	
Cc1cc(N2CC3(CCN(c4cnc5cnn(CC(F)F)c5n4)C3)C2)nc(C(F)(F)F)n1 [Cmpd 404]		< 10 µM
COc1ncc(N2CCC3(CCN(c4cnc5cnn(CC(F)F)c5n4)CC3)C2)c(C(F)(F)F)n1 [Cmpd 788]		10 to 50 µM
O=C1N(c2cncc(C(F)(F)F)c2)CCC12CCN(c1cnc3cnn(CC(F)F)c3n1)CC2 [Cmpd 674]	< 10 µM	
FC(F)(F)c1cc(N2CC3(CCN(c4cnc5cnn(C[C@@H]6CCO6)c5n4)C3)C2)ccn1 [Cmpd 933]	< 10 µM	
Cc1sc(N2CC3(CCN(c4cnc5cnn(CC(F)F)c5n4)C3)C2)nc1C(F)(F)F [Cmpd 1047]	> 100 µM	
FC(F)Cn1ncc2ncc(N3CCC4(CCN(c5cnc(C(F)(F)F)cn5)C4)CC3)nc21 [Cmpd 734]	< 10 µM	
O=C(c1ccc(C(F)(F)F)cn1)N1CCC2(CC1)CN(c1cnc3cnn(CC(F)F)c3n1)C2 [Cmpd 330]	10 to 50 µM	
CCN1C(=O)N(c2ccc(C(F)(F)F)nc2)C(=O)C12CCN(c1cnc3c(C)nn(C4COC4)c3n1)CC2 [Cmpd 870]	> 100 µM	
Cc1nn(CC(F)F)c2nc(N3CCC4(CC3)CCN(c3ccnc(C(F)(F)F)n3)C4=O)cnc12 [Cmpd 897]	< 10 µM	
FC(F)Cn1ncc2ncc(N3CCC4(CC3)CCN(c3cnc(C(F)(F)F)cc3Cl)C4)nc21 [Cmpd 754]	> 100 µM	
FC(F)Cn1ncc2ncc(N3CCC4(CCN(c5ccc(C(F)(F)F)nc5)C4)CC3)nc21 [Compound 147, 8-[1-(2,2-difluoroethyl)-1H-pyrazolo[3,4-b]pyrazin-6-yl]-2-[6-(trifluoromethyl)pyridin-3-yl]-2,8-diazaspiro[4.5]decane]	< 10 µM	
O=C1CC2(CCCN(c3cnc4cnn(CC(F)F)c4n3)C2)CN1c1cccc(C(F)(F)F)n1 (centres unmarked) [Compound 95, 7-[1-(2,2-difluoroethyl)-1H-pyrazolo[3,4-b]pyrazin-6-yl]-2-[6-(trifluoromethyl)pyridin-2-yl]-2,7-diazaspiro[4.5]decan-3-one]	10 to 50 µM	
O=C1N(c2ccnc(C(F)(F)F)c2)CCC12CN(c1cnc3cnn(C4COC4)c3n1)C2 [Cmpd 346]	50 to 100 µM	
CCC1N(c2ccc(C(F)(F)F)nc2)C(=O)CC12CCN(c1cnc3cnn(C4COC4)c3n1)CC2 (centres unmarked) [Cmpd 858]	10 to 50 µM	
Cc1cc(Cl)cnc1N1CC2(CCN(c3cnc4cnn(CC(F)F)c4n3)C2)C1 [Cmpd 408]		10 to 50 µM
Cc1nn(CC(F)F)c2nc(N3CCC4(CN(c5ccnc(C(F)(F)F)c5)C4)C3)ncc12 [Cmpd 296]	< 10 µM	
O=C1N(c2cc(C(F)(F)F)ccn2)CCC12CCN(c1cncc(-n3ccnc3)n1)CC2 [Cmpd 242]	10 to 50 µM	
FC(F)Cn1ncc2ncc(NC3CCC4(CC3)CN(c3cncc(C(F)(F)F)c3)C4)nc21 [Cmpd 199]		< 10 µM
Cc1nc(N2CCC3(C2)CN(c2ncc4cnn(CC(F)(F)F)c4n2)C3)cc(C(F)(F)F)n1 [Cmpd 554]	10 to 50 µM	

SMILES	EC50 [1]	EC50 (EC50 given as range classes)
Cn1c(N2CCC3(CN(c4ccnc(C(F)(F)F)n4)C3)C2)nc2c(cnn2CC(F)F)c1=O [Cmpd 991]		< 10 µM
Cc1nc(N2CC3(CCN(c4cnc5cnn(CC(F)F)c5n4)C3)CC2=O)cc(C(F)(F)F)n1 (centres unmarked) [Cmpd 510]	> 100 µM	
FC(F)Cn1ncc2cnc(N3CCC4(CC3)CN(c3cc(C(F)(F)F)ccn3)C4)nc21 [Cmpd 492]	10 to 50 µM	
Cc1nn(C2COC2)c2nc(N3CCC4(CN(c5cnc(C(F)(F)F)nc5)C4)C3)ncc12 [Cmpd 460]	< 10 µM	
O=C1CC2(CCN(c3cnc4cnn(CC(F)F)c4n3)CC2)CN1Cc1cc(F)ccc1F [Cmpd 447]	< 10 µM	
Cc1nn(C2COC2)c2nc(N3CCC4(CN(c5ccnc(C(F)(F)F)c5)C4)C3)ncc12 [Cmpd 932]	10 to 50 µM	
Cc1nn(CC(F)(F)F)c2nc(N3CCC4(CN(c5cnc(C(F)(F)F)nc5)C4)C3)cnc12 [Cmpd 605]		> 100 µM
FC(F)Cn1ncc2ncc(N3CCC4(C3)CN(c3ncc(Cl)cn3)C4)nc21 [Cmpd 438]	10 to 50 µM	
Cc1ncc(C(F)(F)F)nc1N1CCC2(CCN(c3cnc4cnn(CC(F)F)c4n3)CC2)C1 [Cmpd 765]	< 10 µM	
FC(F)Cn1ncc2ncc(N3CCC4(CCC(Oc5ccc(C(F)(F)F)cn5)C4)CC3)nc21 (centres unmarked) [Cmpd 694]	10 to 50 µM	
COc1cc(N2CCC3(CCN(c4cnc5cnn(CC(F)F)c5n4)CC3)C2=O)nc(C(F)(F)F)c1 [Cmpd 665]	> 100 µM	
Cc1nc(N2CCC3(CC2)CCN(c2ncc4cnn(CC(F)F)c4n2)C3)cc(C(F)(F)F)n1 [Cmpd 581]		10 to 50 µM
FC(F)Cn1ncc2cnc(N3CCC4(CN(c5ccnc(C(F)(F)F)c5)C4)C3)nc21 [Cmpd 295]	10 to 50 µM	
FC(F)(F)Cn1ncc2ncc(N3CCC4(CCN(c5ccnc(C(F)(F)F)c5)C4)C3)nc21 (centres unmarked) [Cmpd 473]	10 to 50 µM	
O=C1CC2(CCN(c3cnc4cnn(CC(F)F)c4n3)CC2)CN1c1ccc(C(F)(F)F)nc1 [Cmpd 680]	10 to 50 µM	
Cn1c(N2CCC3(CN(c4ccnc(C(F)(F)F)c4)C3)C2)nc2c(cnn2C2COC2)c1=O [Cmpd 993]		50 to 100 µM
FC(F)Cn1ncc2ncc(N3CCC4(CN(c5cnc(C6CC6)nc5)C4)C3)nc21 [Cmpd 560]	10 to 50 µM	
CCOc1nn(CC(F)F)c2nc(N3CCC4(CN(c5cc(C(F)(F)F)nc(C)n5)C4)C3)cnc12 [Cmpd 935]	50 to 100 µM	
FC(F)Cn1ncc2ncc(N3CC4(CCN(c5ccnc(C(F)(F)F)c5)C4)C3)nc21 [Cmpd 222]		10 to 50 µM
CCN1C(=O)N(c2ccnc(C(F)(F)F)c2)C(=O)C12CCN(c1cnc3c(C)nn(C4COC4)c3n1)CC2 [Cmpd 984]		< 10 µM

SMILES	EC50 [1]	EC50 (EC50 given as range classes)
Fc1ncc(C(F)(F)F)nc1N1CCC2(CCN(c3cnc4cnn(CC(F)F)c4n3)CC2)C1 [Cmpd 766]	< 10 µM	
Cc1nc(N2CCC3(CCN(c4cnc5c(C)nn(C6COC6)c5n4)C3)C2)cc(C(F)(F)F)n1 (centres unmarked) [Cmpd 543]	10 to 50 µM	
FC(F)(F)c1ccc(N2CCC3(CCN(c4cncc(-c5ccccc5)n4)CC3)C2)cn1 [Cmpd 251]	< 10 µM	
O=C(c1ccc(C(F)(F)F)nc1)N1CC2(CCN(c3cnc4cnn(CC(F)F)c4n3)C2)C1 [Cmpd 322]	10 to 50 µM	
FC(F)Cn1ncc2ncc(N3CCC4(CC3)CC(Oc3ccc(C(F)(F)F)nc3)C4)nc21 [Cmpd 709]	10 to 50 µM	
CCn1c(N2CCC3(CCN(c4ccnc(C(F)(F)F)c4)C3)C2)nc2c(cnn2CC(F)F)c1=O (centres unmarked) [Cmpd 1100]	10 to 50 µM	
Cc1ncc(N2CC3(CCN(c4cnc5cnn(CC(F)F)c5n4)C3)C2)c(C(F)(F)F)n1 [Cmpd 592]		> 100 µM
Cc1nn(CC(F)F)c2nc(N3CCC4(CCN(c5cnc(C(F)(F)F)nc5)C4)C3)ncc12 (centres unmarked) [Cmpd 547]	10 to 50 µM	
O=C1CC2(CCN(c3cnc4cnn(CC(F)F)c4n3)CC2)C(CC(F)F)N1c1ccnc(C(F)(F)F)c1 (centres unmarked) [Cmpd 955]	< 10 µM	
Cn1c(N2CCC3(CCN(c4ccnc(C(F)(F)F)c4)C3)CC2)nc2c(cnn2C2COC2)c1=O [Cmpd 1059]	< 10 µM	
O=C1CC2(CCN(c3cnc4cnn(CC(F)F)c4n3)CC2)CN1Cc1ccc(F)c(Cl)c1 [Cmpd 449]	< 10 µM	
Cc1nc(N2CC3(CCN(c4ncc5cn(C(F)F)nc5n4)C3)C2)cc(C(F)(F)F)n1 [Cmpd 651]	10 to 50 µM	
FC(F)Cn1ncc2ncc(N3CCC4(CN(c5ccnc(C(F)(F)F)c5)C4)C3)nc21 [Cmpd 223]		< 10 µM
Cc1nc(N2CC3(CCN(c4cnc5c(n4)n(C)c(=O)n5CC(F)F)C3)C2)cc(C(F)(F)F)n1 [Cmpd 1078]	< 10 µM	
FC(F)Cn1ncc2ncc(N3CCC4(CN(c5ccc(C(F)(F)F)cn5)C4)C3)nc21 [Compound 186, 6-[1-(2,2-difluoroethyl)-1H-pyrazolo[3,4-b]pyrazin-6-yl]-2-[5-(trifluoromethyl)pyridin-2-yl]-2,6-diazaspiro[3.4]octane]		10 to 50 µM
FC(F)Cn1ncc2ncc(N3CCC4(CC3)CC(Nc3ccc(C(F)(F)F)cn3)C4)nc21 [Cmpd 227]		10 to 50 µM
Fc1cnc(N2CC3(CCN(c4cnc5cnn(CC(F)F)c5n4)C3)C2)cc1C(F)(F)F [Cmpd 453]	10 to 50 µM	
Cc1nn(CC(F)F)c2nc(N3CCC4(CC3)CCN(c3cncc(C(F)(F)F)n3)C4=O)cnc12 [Cmpd 271]	10 to 50 µM	
O=C1N(Cc2cc(C(F)(F)F)ccn2)CCC12CCN(c1cnc3cnn(CC(F)F)c3n1)CC2 [Cmpd 355]	< 10 µM	
